Square brackets hold non-standard residues; d marks the D form. Ends that are not written are not given here.
Experiments:
[1] = test system: transgenic mouse model of brain amyloidosis; conditions: vaccinated transgenic mice; cited from earlier work
[2] = Immunization of rabbits with KLVFFA peptide, antibody titers; format: in vivo; conditions: rabbits immunized, KLH-conjugated peptide, FIG. 7
Procedure: Rabbits were immunized with all-D or all-L KLVFFA.
Standard assays for fibrillogenesis were used to evaluate activity, such as those based on Thioflavine T, circular dichroism and solubility.
Rabbits were immunized with D- or L-Aβ (16-21) peptide. Antibodies raised were tested for their antifibrillogenic activities by ThT assay and by electron microscopy (EM).

| Substance | formation of β-amyloid plaque, astrogliosis and neuritic dystrophy [1] | production of antibodies (antibody titers) [2] | production of antibodies (antibody titers) ([2]; listed as Aβ 16-21 (all-D)) |
| --- | --- | --- | --- |
| human aggregated all-L peptide: human aggregated all-L Aβ peptide used as immunogen in the vaccine of Schenk et al. (1999) | prevented the formation of β-amyloid plaque, astrogliosis and neuritic dystrophy | – | – |
| Aβ (16-21, all-D) ([dK][dL][dV][dF][dF][dA]) [all-D KLVFFA, KLVFFA] | – | causes production of antibodies | antibodies can be raised |

From patent US20070264276A1, “Vaccine for the prevention and treatment of Alzheimer's and amyloid related diseases” (priority 1999, published 2007)
